Reference: ChEMBL document CHEMBL5036318, “Synthesis and Biological Evaluation of Phosphoester and Phosphorothioate Prodrugs of STING Agonist 3',3'-c-Di(2'F,2'dAMP)” (J Med Chem, 2021)
One block for each molecule: values may come before it.

How the values were obtained:
[1] = molecular target: T1, Stimulator of interferon genes protein (Homo sapiens, UniProt Q86WV6); test: Activation of wild-type human STING expressed in HEK293T cells co-expressing IRF3-activated ISRE assessed as IRF3 reporter activation measured after 30 mins by luciferase reporter gene assay; type: cell-based
[2] = molecular target: T1, Stimulator of interferon genes protein; test: Activation of wild-type human STING expressed in HEK293T cells co-expressing IRF3-activated ISRE assessed as IRF3 reporter activation measured after 7 hrs by luciferase reporter gene assay; type: cell-based
[3] = molecular target: T1, Stimulator of interferon genes protein; test: Activation of wild-type human STING expressed in digitonin treated human THP1-Dual cells co-expressing IRF3-activated ISRE assessed as IRF3 reporter activation measured after 30 mins by luciferase reporter gene assay; type: cell-based
[4] = molecular target: T1, Stimulator of interferon genes protein; test: Activation of wild-type human STING expressed in human THP1-Dual cells co-expressing IRF3-activated ISRE assessed as IRF3 reporter activation measured after 7 hrs by luciferase reporter gene assay; type: cell-based
[5] = Induction of INF-alpha production in healthy human PBMC incubated for 16 hrs; type: functional, tissue-based
[6] = Potency index, ratio of test compound EC50 to prodrug EC50 for induction of INF-alpha production in healthy human PBMC incubated for 16 hrs; type: functional
[7] = Induction of INF-gamma production in healthy human PBMC incubated for 16 hrs; type: functional, tissue-based
[8] = Potency index, ratio of test compound EC50 to prodrug EC50 for induction of INF-gamma production in healthy human PBMC incubated for 16 hrs; type: functional
[9] = Induction of TNF-alpha production in healthy human PBMC incubated for 16 hrs; type: functional, tissue-based
[10] = Potency index, ratio of test compound EC50 to prodrug EC50 for induction of TNF-alpha production in healthy human PBMC incubated for 16 hrs; type: functional
[11] = Stability in human plasma assessed as half life; type: ADME, cell-free
[12] = Stability in mouse plasma assessed as half life; type: ADME, cell-free
[13] = Drug uptake in human THP1-Dual cells at 1.25 uM incubated for 2 hrs by HPLC-LS analysis; type: ADME, cell-based
[14] = Drug metabolism in human THP1-Dual cells assessed as 3',3'-c-di(2'F,2'dAMP) metabolite formation measured after 2 hrs by HPLC analysis; type: ADME, cell-based
[15] = Drug metabolism in human THP1-Dual cells assessed as 3',3'-c-di(2'F,2'dAMP) metabolite formation measured after 24 hrs by HPLC analysis; type: ADME, cell-based
[16] = Drug uptake in human THP1-Dual cells at 125 uM incubated for 24 hrs by HPLC-LS analysis; type: ADME, cell-based
[17] = Drug uptake in human THP1-Dual cells at extra cellular concentration incubated for 24 hrs by HPLC-LS analysis; type: ADME, cell-based

T1 sequence (Q86WV6 whole entry): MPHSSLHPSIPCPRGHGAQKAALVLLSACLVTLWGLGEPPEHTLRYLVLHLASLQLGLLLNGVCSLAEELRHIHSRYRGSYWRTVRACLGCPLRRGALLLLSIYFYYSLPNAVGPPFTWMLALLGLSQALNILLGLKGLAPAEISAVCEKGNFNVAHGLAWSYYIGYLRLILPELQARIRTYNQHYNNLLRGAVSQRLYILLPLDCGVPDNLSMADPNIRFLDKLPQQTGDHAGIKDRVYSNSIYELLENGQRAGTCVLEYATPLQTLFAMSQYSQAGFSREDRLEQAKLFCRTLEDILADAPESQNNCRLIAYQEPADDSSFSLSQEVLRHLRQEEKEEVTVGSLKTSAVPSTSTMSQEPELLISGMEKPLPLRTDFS

SMILES: CC(C)(C)C(=O)OCO[P@]1(=O)OC[C@H]2O[C@@H](n3cnc4c(N)ncnc43)[C@H](F)[C@@H]2O[P@](=O)(OCOC(=O)C(C)(C)C)OC[C@H]2O[C@@H](n3cnc4c(N)ncnc43)[C@H](F)[C@@H]2O1
EC50 [1]: 30 nM
EC50 [2]: 20 nM
EC50 [3]: 110 nM
EC50 [4]: 30 nM
EC50 [5]: 220 nM
Ratio EC50 [6]: 234
EC50 [7]: 60 nM
Ratio EC50 [8]: 148
EC50 [9]: 110 nM
Ratio EC50 [10]: 279
half-life [11]: 1.17 h
half-life [12]: < 2 min

Drug uptake [13]: Active
Drug metabolism [14]: Metabolite_Detected
Drug metabolism [15]: Metabolite_Notdetected
SMILES: [3H]c1nc2c(N)ncnc2n1[C@@H]1O[C@@H]2CO[P@@](=O)(OCOC(=O)C(C)(C)C)O[C@H]3[C@@H](F)[C@H](n4c([3H])nc5c(N)ncnc54)O[C@@H]3CO[P@](=O)(OCOC(=O)C(C)(C)C)O[C@H]2[C@H]1F

Drug uptake [13]: Active
Drug metabolism [14]: Metabolite_Detected
Drug metabolism [15]: Metabolite_Notdetected
SMILES: [3H]c1nc2c(N)ncnc2n1[C@@H]1O[C@@H]2CO[P@@](=O)(OCOC(=O)C(C)(C)C)O[C@H]3[C@@H](F)[C@H](n4c([3H])nc5c(N)ncnc54)O[C@@H]3CO[P@@](=O)(OCOC(=O)C(C)(C)C)O[C@H]2[C@H]1F

Drug uptake [16]: Not Active
Drug uptake [17]: Not Active
SMILES: [3H]c1nc2c(N)ncnc2n1[C@@H]1O[C@@H]2COP(=O)(O)O[C@H]3[C@@H](F)[C@H](n4c([3H])nc5c(N)ncnc54)O[C@@H]3COP(=O)(O)O[C@H]2[C@H]1F
